From patent publication US20110021515A1, “DIHYROFUROPYRMINDINE COMPOUNDS” (TAKEDA PHARMACEUTICAL COMPANY LIMITED, priority 2009, published 2011) come the findings set out here.

For this assay, the target named is T1, human mTOR (Homo sapiens, UniProt P42345).
T1 construct: purchased Invitrogen
The experiment in a line: Inhibition of mTOR (LanthaScreen TR-FRET, GFP-4E-BP1 substrate). Format: biochemical. Conditions: purified mTor, GFP-4E-BP1 and ATP, 30 min at room temperature; read-out: pIC50 for inhibition of human mTOR in the assay of Example A (converted). The protocol: Example A Inhibition of mTOR
Purified mTor are purchased from Invitrogen. mTor activity was determined using Invitrogen's LanthaScreen system. The inhibitory properties of compounds relative to mTor may be determined using a black 384-well-plate format in the following buffer 50 mM Hepes, 10 mM NaCl, 10 mM MgCl2, 0.2 mM EDTA, 0.01% Brij35, 2 mM DTT at pH7.3. The test compound is prepared in DMSO using 2 fold serial dilutions for 11 data points which are added to the buffer so that each dilution contains 3% DMSO.
An assay for mTor inhibition is as follows:
Combine in each well 2 μl of 1.2 μM GFP-4E-BP1 (Invitrogen) and 150 μM ATP (in buffer), 2 μl of diluted test compound (3% DMSO in buffer), and 2 μl of 6 nM mTor in buffer. The reaction mixture is then incubated at room temperature for 30 min, and quenched by adding 40 mM ETDA with 4 nM Tb-anti-p4E-BP1 [pThr46] antibody in TR-FRET dilution buffer (Invitrogen). The plate is kept at room temperature for 1 hour and then read using PheraStar (BMG labtech) LanthaScreen mode.
pIC50 values, the negative of the log of the IC50, are calculated by non-linear curve fitting of the compound concentrations and percent of inhibition to the standard pIC50 equation.
(In TR-FRET formats the signal depends on donor and acceptor labels being close together.)
Turning to `CC1(C)OCc2c(N3CCOCC3)nc(-c3ccc(NC(=O)NC4CC4)cc3)nc21` [Example 11, 1-cyclopropyl-3-(4-(7,7-dimethyl-4-morpholino-5,7-dihydrofuro[3,4-d]pyrimidin-2-yl)phenyl)urea], the IC50 is less than 31.6 nM. The figure for `CCNC(=O)Nc1ccc(-c2nc(N3CCOCC3)c3c(n2)C2(CC2)OC3)cc1` [Example 14, 1-ethyl-3-(4-(4′-morpholino-5′H-spiro[cyclopropane-1,7′-furo[3,4-d]pyrimidine]-2′-yl)phenyl)urea] is less than 31.6 nM; for `O=C(Nc1ccc(-c2nc(N3CCOCC3)c3c(n2)C2(CC2)OC3)cc1)NC1CC1` [Example 15, 1-cyclopropyl-3-(4-(4′-morpholino-5′H-spiro[cyclopropane-1,7′-furo[3,4-d]pyrimidine]-2′-yl)phenyl)urea] it is less than 31.6 nM. For `CCNC(=O)Nc1ccc(-c2nc(N3CCOCC3)c3c(n2)C(C)(C)OC3)cc1` [Example 10], the IC50 was less than 31.6 nM.

Take `CCNC(=O)Nc1ccc(-c2nc(N3CC4CCC(C3)O4)c3c(n2)C(C)(C)OC3)cc1` [Example 9, 1-(4-(4-(8-oxa-3-azabicyclo[3.2.1]octan-3-yl)-7,7-dimethyl-5,7-dihydrofuro[3,4-d]pyrimidin-2-yl)phenyl)-3-ethylurea]: the IC50 was less than 31.6 nM. Under `CNC(=O)Nc1ccc(-c2nc(N3CCOCC3)c3c(n2)C(C)(C)OC3)cc1` [Example 8, 1-(4-(7,7-dimethyl-4-morpholino-5,7-dihydrofuro[3,4-d]pyrimidin-2-yl)phenyl)-3-methylurea] stands less than 31.6 nM; under `CNC(=O)Nc1ccc(-c2nc(N3CC4CCC(C3)O4)c3c(n2)C2(CC2)OC3)cc1` [Example 13, 1-(4-(4′-(8-oxa-3-azabicyclo[3.2.1]octan-3-yl)-5′H-spiro[cyclopropane-1,7′-furo[3,4-d]pyrimidine]-2′-yl)phenyl)-3-methylurea], less than 31.6 nM; under `CNC(=O)Nc1ccc(-c2nc(N3CC4CCC(C3)O4)c3c(n2)C(C)(O)OC3)cc1` (stereo not drawn) [Example 12, 1-(4-(4-(8-oxa-3-azabicyclo[3.2.1]octan-3-yl)-7-hydroxy-7-methyl-5,7-dihydrofuro[3,4-d]pyrimidin-2-yl)phenyl)-3-methylurea], 31.6 to 1000 nM. Under `CNC(=O)Nc1ccc(-c2nc(N3CC4CCC(C3)O4)c3c(n2)C(C)(C)OC3)cc1` [Example 6, 1-(4-(4-(8-oxa-3-azabicyclo[3.2.1]octan-3-yl)-7,7-dimethyl-5,7-dihydrofuro[3,4-d]pyrimidin-2-yl)phenyl)-3-methylurea] stands less than 31.6 nM; under `CNC(=O)Nc1ccc(-c2nc(N3CC4CCC(C3)O4)c3c(n2)C(C)(C)CO3)cc1` [Example 4, 1-(4-(4-(8-oxa-3-azabicyclo[3.2.1]octan-3-yl)-7,7-dimethyl-6,7-dihydrofuro[3,2-d]pyrimidin-2-yl)phenyl)-3-methylurea], less than 31.6 nM.

In the case of `CNC(=O)Nc1ccc(-c2nc(N3CCOCC3)c3c(n2)C2(CC2)OC3)cc1` [Example 16, 1-methyl-3-(4-(4′-morpholino-5′H-spiro[cyclopropane-1,7′-furo[3,4-d]pyrimidine]-2′-yl)phenyl)urea], the IC50 was less than 31.6 nM.

As to `CNC(=O)Nc1ccc(-c2nc(N3CCOCC3)c3c(n2)C(C)(C)CO3)cc1` [Example 2, 1-(4-(7,7-dimethyl-4-morpholino-6,7-dihydrofuro[3,2-d]pyrimidin-2-yl)phenyl)-3-methylurea], the IC50 is less than 31.6 nM.
